Results: patent publication US20180338980A1, “AROMATIC SULFONAMIDE DERIVATIVES” (BAYER PHARMA AKTIENGESELLSCHAFT, priority 2015, published 2018)
Values joined by “and” are separate entries in the source; they are usually repeats but may differ in a detail not shown here. Identical values can stand only once.

Legend:
[1] = molecular target: T1, P2X4 (Homo sapiens, UniProt Q99571); test: Assay B: human P2X4 receptor cell line, mitochondrial photina luminescence (agonist Bz-ATP at EC50); format: cell-based; design: host or cells: HEK 293 (recombinant, constitutively expressing; with mitochondrial photina in Assay B); settings: HEK human P2X4 cell line, photina luminescence, agonist Bz-ATP at EC50, average; for Emax: read-out: human P2X4 Assay B avg Efficacy
T1 sequence (Q99571 1-388): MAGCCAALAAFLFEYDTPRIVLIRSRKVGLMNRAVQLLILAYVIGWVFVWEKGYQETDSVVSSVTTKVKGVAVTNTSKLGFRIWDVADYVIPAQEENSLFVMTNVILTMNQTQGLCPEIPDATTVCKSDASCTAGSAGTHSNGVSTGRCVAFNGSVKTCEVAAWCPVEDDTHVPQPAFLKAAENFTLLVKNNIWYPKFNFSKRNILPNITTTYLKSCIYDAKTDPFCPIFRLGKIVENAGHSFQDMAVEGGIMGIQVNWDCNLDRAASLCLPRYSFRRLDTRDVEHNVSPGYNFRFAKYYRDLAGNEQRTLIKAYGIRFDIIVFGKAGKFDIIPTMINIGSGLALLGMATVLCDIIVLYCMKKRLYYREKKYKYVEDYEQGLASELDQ
Procedure, shortened: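 Bz-ATP at its EC50 activates human P2X4 stably expressed in a cell line that also carries the calcium-sensitive photoprotein mitochondrial photina (coelenterazine cofactor). Light emitted on calcium influx is measured straight away in a luminometer. Reduced luminescence indicates antagonism.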

[2] = molecular target: T1, P2X4; test: Assay A: human P2X4 receptor cell line, FLIPR calcium assay (Fluo-8, agonist Bz-ATP at EC80); format: cell-based; design: host or cells: HEK 293 (recombinant, constitutively expressing; with mitochondrial photina in Assay B); settings: HEK human P2X4 cells, Fluo-8 FLIPR; for Emax: percentage of maximal inhibition, read-out: human P2X4 Assay A avg Efficacy; for IC50: Bz-ATP at EC80, average values
Protocol: A fluorescent imaging plate reader (FLEX/FLIPR station; Molecular Devices) was used to monitor intracellular calcium levels using the calcium-chelating dye Fluo-8 (Molecular Probes). […] Cells expressing purinergic receptors human P2X4 (HEK human P2X4: PerkinElmer, Product No.: AX-015-PCF) were plated at a density of 20,000 cells/well in poly-D-lysine-coated 384-well plates approximately 20 hours before beginning the assay. On the day of the assay, the medium was removed and 30 μl of dye buffer (Hank's balanced salt solution, 10 mM HEPES, 1.8 mM CaCl2), 1 mM MgCl2, 2 mM probenecid, 5 mM D-glucose monohydrate, 5 μM Fluo-8, pH=7.4) was added for 30 min at […] and 5% CO2. The antagonist in probenecid buffer (Hank's balanced salt solution, 10 mM HEPES, 1.8 mM CaCl2, 1 mM MgCl2, 2 mM probenecid, 5 mM D-glucose monohydrate, pH=7.4) was added in a volume of 10 μl and allowed to incubate for 30 min at room temperature. The final assay DMSO concentration is 0.5%. The agonist, Bz-ATP, is added in a volume of 10 μl at a concentration representing the EC80 value. The fluorescence was measured for an interval of 120 sec at 2 sec intervals and analyzed based on the increase in peak relative fluorescence units (RFU) compared to the basal fluorescence. Peak fluorescence was used to determine the response to agonist obtained at each concentration of antagonist by the following equation:
% Response=100*(RFU(drug)−RFU(control))/(RFU(DMSO)−RFU(control))
The compounds were tested in triplicates per plate and mean values were plotted in Excel XLFit to determine IC50 values, percentage of maximal inhibition and the Hill coefficients.

Row | Compound | Emax [1] [%] | Emax [2] [%] | IC50 [1] [nM] | IC50 [2]
1 | NS(=O)(=O)c1cc(NC(=O)Cc2ccccc2Cl)ccc1Oc1cccc(N2CCOCC2=O)c1 [Example 173, 2-(2-Chlorophenyl)-N-{4-[3-(3-oxomorpholin-4-yl)phenoxy]-3-sulfamoylphenyl}acetamide] | 92 | 100 |  | 
2 | NS(=O)(=O)c1cc(NC(=O)Cc2cccc(F)c2Cl)ccc1OCC1CCOCC1 [Example 167, 2-(2-Chloro-3-fluorophenyl)-N-[3-sulfamoyl-4-(tetrahydro-2H-pyran-4-ylmethoxy)phenyl]acetamide] | 80 | 87 |  | 
3 | NS(=O)(=O)c1cc(NC(=O)Cc2ccccc2Cl)ccc1OC1CCCCC1 [Example 200, 2-(2-Chlorophenyl)-N-[4-(cyclohexyloxy)-3-sulfamoylphenyl]acetamide] | 83 | 86 |  | 
4 | NS(=O)(=O)c1cc(NC(=O)Cc2ccc(F)cc2Cl)ccc1Oc1ccc(Cl)cc1 [Example 231, 2-(2-Chloro-4-fluorophenyl)-N-[4-(4-chlorophenoxy)-3-sulfamoylphenyl]acetamide] | 46 | 62 | 121 | 529 nM
5 | NS(=O)(=O)c1cc(NC(=O)Cc2ccccc2Cl)ccc1Oc1ccc(N2CCCCC2=O)cc1 [Example 175, 2-(2-Chlorophenyl)-N-{4-[4-(2-oxopiperidin-1-yl)phenoxy]-3-sulfamoylphenyl}acetamide] | 67 | 52 | 15000 | 1300 nM
6 | NS(=O)(=O)c1cc(NC(=O)Cc2ccc(C(F)(F)F)cc2Cl)ccc1Oc1cccc(Cl)c1 [Example 135, N-[4-(3-Chlorophenoxy)-3-sulfamoylphenyl]-2-[2-chloro-4-(trifluoromethyl)phenyl]acetamide] | 45 | 75 | 870 | 631 nM
7 | NS(=O)(=O)c1cc(NC(=O)Cc2ccccc2C(F)F)cc(F)c1Oc1cccc(Cl)c1 [Example 290, N-[4-(3-Chlorophenoxy)-3-fluoro-5-sulfamoylphenyl]-2-[2-(difluoromethyl)-phenyl]acetamide] |  | 66 |  | 16000 nM
8 | NS(=O)(=O)c1cc(NC(=O)Cc2ccccc2Cl)cc(F)c1Oc1cccc(Cl)c1 [Example 291, N-[4-(3-Chlorophenoxy)-3-fluoro-5-sulfamoylphenyl]-2-(2-chlorophenyl)acetamide] |  | 57 |  | 10500 nM and > 25000 nM
9 | NS(=O)(=O)c1cc(NC(=O)Cc2ccccc2Cl)ccc1Oc1cnc(Cl)c(F)c1 [Example 286, N-{4-[(6-Chloro-5-fluoropyridin-3-yl)oxy]-3-sulfamoylphenyl}-2-(2-chlorophenyl)-acetamide] |  | 55 |  | 237 nM
10 | NS(=O)(=O)c1cc(NC(=O)Cc2ccccc2Cl)ccc1OCC1(O)CCCCC1 [Example 288, 2-(2-Chlorophenyl)-N-{4-[(1-hydroxycyclohexyl)methoxy]-3-sulfamoylphenyl}-acetamide] |  | 57 |  | 988 nM
11 | NS(=O)(=O)c1cc(NC(=O)Cc2cc(F)ccc2Cl)cc(F)c1Oc1cccc(Cl)c1 [Example 292, 2-(2-Chloro-5-fluorophenyl)-N-[4-(3-chlorophenoxy)-3-fluoro-5-sulfamoyl-phenyl]acetamide] |  | 69 |  | 15100 nM
12 | CC1(C)CC(COc2ccc(NC(=O)Cc3ccccc3Cl)cc2S(N)(=O)=O)CCO1 (stereo not drawn) [Example 265, 2-(2-Chlorophenyl)-N-{4-[(2,2-dimethyltetrahydro-2H-pyran-4-yl)methoxy]-3-sulfamoylphenyl}acetamide] |  | 74 |  | 416 nM
13 | NS(=O)(=O)c1cc(NC(=O)Cc2ccccc2Cl)ccc1Oc1ccc(C(F)(F)F)nc1 [Example 283, 2-(2-Chlorophenyl)-N-(3-sulfamoyl-4-{[6-(trifluoromethyl)pyridin-3-yl]oxy}phenyl)-acetamide] |  | 62 |  | 8050 nM

The remaining lines, values ahead:

Row | Emax [1] [%] | Emax [2] [%] | IC50 [1] [nM] | IC50 [2] | Compound
14 | 58 | 75 | 53 | 27 nM | NS(=O)(=O)c1cc(NC(=O)Cc2ccccc2Br)ccc1Oc1cccc(Cl)c1 [Example 091, 2-(2-Bromophenyl)-N-[4-(3-chlorophenoxy)-3-sulfamoylphenyl]acetamide]
15 | 69 | 97 | 59 | 38 nM | COc1cccc(Cl)c1CC(=O)Nc1ccc(Oc2cccc(Cl)c2)c(S(N)(=O)=O)c1 [Example 101, 2-(2-Chloro-6-methoxyphenyl)-N-[4-(3-chlorophenoxy)-3-sulfamoylphenyl]acetamide]
16 | 70 | 78 | 141 | 208 nM | NS(=O)(=O)c1cc(NC(=O)Cc2cccc(Cl)c2Cl)ccc1Oc1cccc(Cl)c1 [Example 103, N-[4-(3-Chlorophenoxy)-3-sulfamoylphenyl]-2-(2,3-dichlorophenyl)acetamide]
17 | 76 | 93 | 129 | 86 nM | NS(=O)(=O)c1cc(NC(=O)Cc2ccccc2Cl)ccc1OCc1ccccc1Cl [Example 144, N-{4-[(2-Chlorobenzyl)oxy]-3-sulfamoylphenyl}-2-(2-chlorophenyl)acetamide]
18 | 61 | 94 | 468 | 43 nM | NS(=O)(=O)c1cc(NC(=O)Cc2cc(Br)ccc2Cl)ccc1Oc1cccc(Cl)c1 [Example 117, 2-(5-Bromo-2-chlorophenyl)-N-[4-(3-chlorophenoxy)-3-sulfamoylphenyl]acetamide]
19 | 84 | 94 | 578 | 68 nM | NS(=O)(=O)c1cc(NC(=O)Cc2ccccc2Cl)ccc1OCC1(F)CCOCC1 [Example 054, 2-(2-chlorophenyl)-N-{4-[(4-fluorotetrahydro-2H-pyran-4-yl)methoxy]-3-sulfamoylphenyl}acetamide]
20 | 70 | 90 | 60 | 43 nM | N#Cc1cccc(COc2ccc(NC(=O)Cc3ccccc3Cl)cc2S(N)(=O)=O)c1 [Example 142, 2-(2-Chlorophenyl)-N-{4-[(3-cyanobenzyl)oxy]-3-sulfamoylphenyl}acetamide]
21 |  | 67 |  | 72 nM | NS(=O)(=O)c1cc(NC(=O)Cc2ccccc2F)cnc1Oc1cccc(Cl)c1 [Example 293, N-[6-(3-Chlorophenoxy)-5-sulfamoylpyridin-3-yl]-2-(2-fluorophenyl)acetamide]
22 |  | 75 |  | 19 nM | NS(=O)(=O)c1cc(NC(=O)Cc2ccc(O)cc2)ccc1Oc1cccc(Cl)c1 [Example 256, N-[4-(3-Chlorophenoxy)-3-sulfamoylphenyl]-2-(4-hydroxyphenyl)acetamide]
23 |  | 89 |  | 63 nM | NS(=O)(=O)c1cc(NC(=O)Cc2ccccc2Cl)ccc1OC[C@H]1[C@@H]2COC[C@@H]21 [Example 266, 2-(2-Chlorophenyl)-N-{4-[(1R,5S,6r)-3-oxabicyclo[3.1.0]hex-6-ylmethoxy]-3-sulfamoylphenyl}acetamide]
24 |  | 58 |  | 187 nM | NS(=O)(=O)c1cc(NC(=O)Cc2ccccc2Cl)ccc1OCC1(O)CCC(F)(F)CC1 [Example 287, 2-(2-Chlorophenyl)-N-{4-[(4,4-difluoro-1-hydroxycyclohexyl)methoxy]-3-sulfamoyl-phenyl}acetamide]
25 |  | 54 |  | 42 nM | [2H]c1c([2H])c(Oc2ccc(NC(=O)Cc3ccccc3Cl)cc2S(N)(=O)=O)c([2H])c([2H])c1Cl [Example 262, 2-(2-Chlorophenyl)-N-(4-{[4-chloro(^2H4)phenyl]oxy}-3-sulfamoylphenyl)acetamide]
26 |  | 76 |  | 145 nM | NS(=O)(=O)c1cc(NC(=O)Cc2c(F)cc(F)cc2Cl)ccc1Oc1cccc(Cl)c1 [Example 259, 2-(2-Chloro-4,6-difluorophenyl)-N-[4-(3-chlorophenoxy)-3-sulfamoylphenyl]acetamide]
